Columns and labels:
Format in all cases: cell-based
WEE1 = molecular target: T1, WEE1 (Homo sapiens, UniProt P30291+Q96SW2); test: Western-blot assay, substrate protein degradation in hPBMCs: WEE1; details: for substrate protein remaining % WEE1: 24 hours of compound treatment, 50 nM and 500 nM; for WEE1 substrate protein remaining %: compounds at 50 nM and 500 nM, 24 hours
T1 construct: effects of the compounds of the present disclosure on the expression of target proteins in cells; endogenous in cells; host or cells: human PBMCs (hPBMCs)

IKZF1 = molecular target: T2, IKZF1 (Homo sapiens, UniProt Q13422+Q96SW2); test: Western-blot assay, substrate protein degradation in hPBMCs: IKZF1; details: for substrate protein remaining % IKZF1: 24 hours of compound treatment, 50 nM and 500 nM; for IKZF1 substrate protein remaining %: compounds at 50 nM and 500 nM, 24 hours
T2 construct: effects of the compounds of the present disclosure on the expression of target proteins in cells; endogenous in cells; host or cells: human PBMCs (hPBMCs)

IKZF2 = molecular target: T3, IKZF2 (Homo sapiens, UniProt Q96SW2+Q9UKS7); test: Western-blot assay, substrate protein degradation in hPBMCs: IKZF2; details: for substrate protein remaining % IKZF2: 24 hours of compound treatment, 50 nM and 500 nM; for IKZF2 substrate protein remaining %: compounds at 50 nM and 500 nM, 24 hours
T3 construct: effects of the compounds of the present disclosure on the expression of target proteins in cells; endogenous in cells; host or cells: human PBMCs (hPBMCs)

IKZF3 = molecular target: T4, IKZF3 (Homo sapiens, UniProt Q96SW2+Q9UKT9); test: Western-blot assay, substrate protein degradation in hPBMCs: IKZF3; details: for substrate protein remaining % IKZF3: 24 hours of compound treatment, 50 nM and 500 nM; for IKZF3 substrate protein remaining %: compounds at 50 nM and 500 nM, 24 hours
T4 construct: effects of the compounds of the present disclosure on the expression of target proteins in cells; endogenous in cells; host or cells: human PBMCs (hPBMCs)

CK1α = molecular target: T5, CK1α (Homo sapiens, UniProt P48729+Q96SW2); test: Western-blot assay, substrate protein degradation in hPBMCs: CK1α; details: for substrate protein remaining % CK1α: 24 hours of compound treatment, 50 nM and 500 nM; for CK1α substrate protein remaining %: compounds at 50 nM and 500 nM, 24 hours
T5 construct: effects of the compounds of the present disclosure on the expression of target proteins in cells; endogenous in cells; host or cells: human PBMCs (hPBMCs)

GSPT1 = molecular target: T6, GSPT1 (Homo sapiens, UniProt P15170+Q96SW2); test: Western-blot assay, substrate protein degradation in hPBMCs: GSPT1; details: for substrate protein remaining % GSPT1: 24 hours of compound treatment, 50 nM and 500 nM; for GSPT1 substrate protein remaining %: compounds at 50 nM and 500 nM, 24 hours
T6 construct: effects of the compounds of the present disclosure on the expression of target proteins in cells; endogenous in cells; host or cells: human PBMCs (hPBMCs)
T6 sequence (P15170 whole entry): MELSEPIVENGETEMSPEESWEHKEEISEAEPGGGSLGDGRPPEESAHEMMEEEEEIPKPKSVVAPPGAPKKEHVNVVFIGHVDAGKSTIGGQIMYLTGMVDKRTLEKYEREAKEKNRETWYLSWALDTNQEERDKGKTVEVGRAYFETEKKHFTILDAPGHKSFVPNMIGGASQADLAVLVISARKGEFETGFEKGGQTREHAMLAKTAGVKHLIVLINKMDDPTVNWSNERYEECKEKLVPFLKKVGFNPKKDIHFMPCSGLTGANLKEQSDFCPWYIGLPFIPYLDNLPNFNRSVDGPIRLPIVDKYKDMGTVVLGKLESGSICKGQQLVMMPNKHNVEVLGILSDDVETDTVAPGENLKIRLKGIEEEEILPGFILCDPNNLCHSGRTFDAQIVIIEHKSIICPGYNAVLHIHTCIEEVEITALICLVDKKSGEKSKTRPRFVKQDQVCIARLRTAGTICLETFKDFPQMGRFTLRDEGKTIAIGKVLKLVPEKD
T6 sequence (Q96SW2 whole entry): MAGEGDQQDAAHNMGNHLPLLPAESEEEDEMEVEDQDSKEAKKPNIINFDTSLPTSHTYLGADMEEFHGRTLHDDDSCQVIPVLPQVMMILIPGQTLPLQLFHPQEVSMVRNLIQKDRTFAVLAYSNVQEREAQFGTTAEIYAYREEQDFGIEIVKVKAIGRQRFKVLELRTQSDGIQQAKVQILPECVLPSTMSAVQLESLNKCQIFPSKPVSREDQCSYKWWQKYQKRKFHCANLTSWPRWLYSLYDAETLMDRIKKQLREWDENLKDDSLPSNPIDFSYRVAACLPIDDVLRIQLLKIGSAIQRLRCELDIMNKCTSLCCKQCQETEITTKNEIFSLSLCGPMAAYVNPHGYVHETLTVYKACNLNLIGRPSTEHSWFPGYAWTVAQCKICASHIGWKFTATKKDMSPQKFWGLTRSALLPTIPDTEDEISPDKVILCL
T6 sequence (Q16531 whole entry partner): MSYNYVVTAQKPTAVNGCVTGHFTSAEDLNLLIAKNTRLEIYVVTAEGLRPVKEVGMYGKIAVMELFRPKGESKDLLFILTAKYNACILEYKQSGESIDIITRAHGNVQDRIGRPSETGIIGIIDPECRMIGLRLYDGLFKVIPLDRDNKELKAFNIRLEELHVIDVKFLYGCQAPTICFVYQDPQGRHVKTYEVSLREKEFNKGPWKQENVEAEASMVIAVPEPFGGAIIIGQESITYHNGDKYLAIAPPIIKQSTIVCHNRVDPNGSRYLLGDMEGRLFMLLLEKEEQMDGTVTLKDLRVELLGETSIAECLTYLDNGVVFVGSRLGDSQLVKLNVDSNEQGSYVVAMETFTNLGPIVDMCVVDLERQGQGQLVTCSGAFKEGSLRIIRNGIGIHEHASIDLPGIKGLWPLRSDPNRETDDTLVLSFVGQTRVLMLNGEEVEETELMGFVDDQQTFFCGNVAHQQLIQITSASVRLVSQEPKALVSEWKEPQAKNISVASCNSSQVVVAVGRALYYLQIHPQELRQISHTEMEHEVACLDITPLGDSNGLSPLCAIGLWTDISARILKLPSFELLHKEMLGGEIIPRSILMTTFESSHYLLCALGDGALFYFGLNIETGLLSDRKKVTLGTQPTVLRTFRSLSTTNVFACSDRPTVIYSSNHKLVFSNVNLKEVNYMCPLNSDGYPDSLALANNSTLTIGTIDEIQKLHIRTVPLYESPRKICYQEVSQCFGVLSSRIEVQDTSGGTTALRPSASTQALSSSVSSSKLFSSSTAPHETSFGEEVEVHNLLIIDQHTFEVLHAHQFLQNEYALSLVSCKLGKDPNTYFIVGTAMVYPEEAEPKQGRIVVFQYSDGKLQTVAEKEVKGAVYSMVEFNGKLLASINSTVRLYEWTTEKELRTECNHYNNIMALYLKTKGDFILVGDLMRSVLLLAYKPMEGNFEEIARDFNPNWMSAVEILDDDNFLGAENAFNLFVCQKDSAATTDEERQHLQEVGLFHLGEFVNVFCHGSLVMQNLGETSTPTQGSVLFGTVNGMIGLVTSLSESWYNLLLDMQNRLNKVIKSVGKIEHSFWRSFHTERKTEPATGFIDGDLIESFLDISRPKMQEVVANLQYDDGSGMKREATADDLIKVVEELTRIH

T5 sequence (P48729 whole entry): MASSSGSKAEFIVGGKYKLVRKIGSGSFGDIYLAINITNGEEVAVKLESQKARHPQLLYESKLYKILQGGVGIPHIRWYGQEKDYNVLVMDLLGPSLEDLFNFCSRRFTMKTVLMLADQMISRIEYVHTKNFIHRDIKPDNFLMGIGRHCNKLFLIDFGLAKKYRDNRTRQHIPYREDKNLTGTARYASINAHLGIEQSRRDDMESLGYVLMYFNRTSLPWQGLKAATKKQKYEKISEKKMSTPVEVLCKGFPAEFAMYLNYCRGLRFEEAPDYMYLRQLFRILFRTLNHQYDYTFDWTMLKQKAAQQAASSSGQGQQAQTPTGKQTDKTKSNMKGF
T5 sequence (Q96SW2 whole entry): as the sequence (Q96SW2 whole entry) above
T5 sequence (Q16531 whole entry partner): as the sequence (Q16531 whole entry partner) above
T2 sequence (Q13422 whole entry): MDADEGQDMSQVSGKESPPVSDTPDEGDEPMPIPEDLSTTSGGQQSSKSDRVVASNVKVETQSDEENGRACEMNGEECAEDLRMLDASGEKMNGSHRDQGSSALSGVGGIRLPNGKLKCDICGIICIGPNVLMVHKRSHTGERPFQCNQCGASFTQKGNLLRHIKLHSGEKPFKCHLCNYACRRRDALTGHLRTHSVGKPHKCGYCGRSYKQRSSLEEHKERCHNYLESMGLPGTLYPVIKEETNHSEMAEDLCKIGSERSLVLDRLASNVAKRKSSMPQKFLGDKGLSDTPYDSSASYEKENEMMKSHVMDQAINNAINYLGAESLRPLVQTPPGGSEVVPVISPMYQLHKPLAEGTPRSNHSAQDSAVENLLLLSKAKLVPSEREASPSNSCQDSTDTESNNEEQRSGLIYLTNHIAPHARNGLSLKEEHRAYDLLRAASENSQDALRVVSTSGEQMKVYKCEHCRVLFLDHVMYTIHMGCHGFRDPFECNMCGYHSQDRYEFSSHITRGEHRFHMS
T2 sequence (Q96SW2 whole entry): as the sequence (Q96SW2 whole entry) above
T2 sequence (Q16531 whole entry partner): as the sequence (Q16531 whole entry partner) above
T1 sequence (P30291 whole entry): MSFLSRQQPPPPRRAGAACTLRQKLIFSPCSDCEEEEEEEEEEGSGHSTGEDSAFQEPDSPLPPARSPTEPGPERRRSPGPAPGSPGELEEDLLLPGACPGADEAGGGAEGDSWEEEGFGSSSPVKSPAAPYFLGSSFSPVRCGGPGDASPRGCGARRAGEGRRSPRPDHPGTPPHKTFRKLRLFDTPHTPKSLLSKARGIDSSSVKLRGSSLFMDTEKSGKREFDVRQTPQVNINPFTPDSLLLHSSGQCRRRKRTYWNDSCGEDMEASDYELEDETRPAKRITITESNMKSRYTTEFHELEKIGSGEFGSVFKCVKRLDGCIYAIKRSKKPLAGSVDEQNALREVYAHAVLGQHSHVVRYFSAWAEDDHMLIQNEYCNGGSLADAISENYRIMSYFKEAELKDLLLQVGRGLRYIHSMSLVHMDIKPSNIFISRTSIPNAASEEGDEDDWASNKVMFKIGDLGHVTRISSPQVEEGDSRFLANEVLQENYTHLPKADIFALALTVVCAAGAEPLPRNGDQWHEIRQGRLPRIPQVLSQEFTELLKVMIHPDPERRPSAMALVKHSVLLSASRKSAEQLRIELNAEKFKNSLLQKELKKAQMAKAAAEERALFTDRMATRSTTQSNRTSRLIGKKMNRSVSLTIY
T1 sequence (Q96SW2 whole entry): as the sequence (Q96SW2 whole entry) above
T1 sequence (Q16531 whole entry partner): as the sequence (Q16531 whole entry partner) above
T3 sequence (Q9UKS7 whole entry): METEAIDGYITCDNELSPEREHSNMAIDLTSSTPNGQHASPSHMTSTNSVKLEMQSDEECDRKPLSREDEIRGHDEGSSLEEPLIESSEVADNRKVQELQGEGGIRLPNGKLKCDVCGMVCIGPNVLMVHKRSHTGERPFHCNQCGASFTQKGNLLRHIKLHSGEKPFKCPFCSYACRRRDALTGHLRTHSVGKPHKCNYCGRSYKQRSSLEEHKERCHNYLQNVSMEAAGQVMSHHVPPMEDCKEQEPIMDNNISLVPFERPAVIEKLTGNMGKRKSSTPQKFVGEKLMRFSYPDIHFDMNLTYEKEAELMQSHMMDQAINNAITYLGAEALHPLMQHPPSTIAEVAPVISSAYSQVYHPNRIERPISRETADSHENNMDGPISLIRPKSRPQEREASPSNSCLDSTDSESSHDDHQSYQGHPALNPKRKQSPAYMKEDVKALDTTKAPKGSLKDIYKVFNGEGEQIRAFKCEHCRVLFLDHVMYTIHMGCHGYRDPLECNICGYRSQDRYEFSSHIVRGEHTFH
T3 sequence (Q96SW2 whole entry): as the sequence (Q96SW2 whole entry) above
T3 sequence (Q16531 whole entry partner): as the sequence (Q16531 whole entry partner) above

Compound	substrate protein remaining % WEE1 (WEE1)	substrate protein remaining % IKZF1 (IKZF1)	substrate protein remaining % IKZF2 (IKZF2)	substrate protein remaining % IKZF3 (IKZF3)	substrate protein remaining % CK1α (CK1α)	substrate protein remaining % GSPT1 (GSPT1)	WEE1 substrate protein remaining % (WEE1)	IKZF1 substrate protein remaining % (IKZF1)	IKZF2 substrate protein remaining % (IKZF2)	IKZF3 substrate protein remaining % (IKZF3)	CK1α substrate protein remaining % (CK1α)	GSPT1 substrate protein remaining % (GSPT1)
O=C1CCN(N2C(=O)c3ccc(CN4CC5CCC(C4)N5c4cccc(Cl)c4Cl)cc3C2=O)C(=O)N1 [GT-07437, 5-((8-(2,3-dichlorophenyl)-3,8-diazabicyclo[3.2.1]octan-3-yl)methyl)-2-(2,4-dioxotetrahydropyrimidin-1(2H)-yl)isoindoline-1,3-dione]	A (0% ≤ substrate protein remaining % ≤ 80%)	B (80%< substrate protein remaining %≤ 100%)	B (80%< substrate protein remaining %≤ 100%)	B (80%< substrate protein remaining %≤ 100%)	A (0% ≤ substrate protein remaining % ≤ 80%)	A (0% ≤ substrate protein remaining % ≤ 80%)						
O=C1CCN(N2Cc3cc(CN4CCN(c5ncncn5)CC4)ccc3C2=O)C(=O)N1 [GT-07031, 1-(5-((4-(1,3,5-triazin-2-yl)piperazin-1-yl)methyl)-1-oxoisoindolin-2-yl)dihydropyrimidine-2,4(1H,3H)-dione]							B ("B" is defined as 80%< substrate protein remaining %≤ 100%)	A ("A" is defined as 0% ≤ substrate protein remaining % ≤ 80%)	B ("B" is defined as 80%< substrate protein remaining %≤ 100%)	A ("A" is defined as 0% ≤ substrate protein remaining % ≤ 80%)	A ("A" is defined as 0% ≤ substrate protein remaining % ≤ 80%)	A ("A" is defined as 0% ≤ substrate protein remaining % ≤ 80%)
O=C1CCN(N2C(=O)c3ccc(CN4CCN(Cc5ccc(C67CC8CC(CC(C8)C6)C7)cc5)CC4)cc3C2=O)C(=O)N1 [GT-07722, 5-((4-(4-((3r,5r,7r)-adamantan-1-yl)benzyl)piperazin-1-yl)methyl)-2-(2,4-dioxotetrahydropyrimidin-1(2H)-yl)isoindoline-1,3-dione]	A (0% ≤ substrate protein remaining % ≤ 80%)	B (80%< substrate protein remaining %≤ 100%)	A (0% ≤ substrate protein remaining % ≤ 80%)	A (0% ≤ substrate protein remaining % ≤ 80%)	A (0% ≤ substrate protein remaining % ≤ 80%)	A (0% ≤ substrate protein remaining % ≤ 80%)						
O=C1CCN(N2Cc3cc(CN4CCC(c5nccc(Cl)c5Cl)CC4)ccc3C2=O)C(=O)N1 [GT-06388, 1-(5-((4-(3,4-dichloropyridin-2-yl)piperidin-1-yl)methyl)-1-oxoisoindolin-2-yl)dihydropyrimidine-2,4(1H,3H)-dione]							B ("B" is defined as 80%< substrate protein remaining %≤ 100%)	B ("B" is defined as 80%< substrate protein remaining %≤ 100%)	B ("B" is defined as 80%< substrate protein remaining %≤ 100%)	B ("B" is defined as 80%< substrate protein remaining %≤ 100%)	B ("B" is defined as 80%< substrate protein remaining %≤ 100%)	A ("A" is defined as 0% ≤ substrate protein remaining % ≤ 80%)
O=C1CCN(N2C(=O)c3ccc(CN4CCN(C(c5ccccc5)c5cccnc5)CC4)cc3C2=O)C(=O)N1 (stereo not drawn) [GT-06377, 2-(2,4-dioxotetrahydropyrimidin-1(2H)-yl)-5-((4-(phenyl(pyridin-3-yl)methyl)piperazin-1-yl)methyl)isoindoline-1,3-dione]							A ("A" is defined as 0% ≤ substrate protein remaining % ≤ 80%)	B ("B" is defined as 80%< substrate protein remaining %≤ 100%)	A ("A" is defined as 0% ≤ substrate protein remaining % ≤ 80%)	B ("B" is defined as 80%< substrate protein remaining %≤ 100%)	B ("B" is defined as 80%< substrate protein remaining %≤ 100%)	B ("B" is defined as 80%< substrate protein remaining %≤ 100%)
O=C1CCN(N2Cc3cc(CN4CCN(Cc5ccc(C67CC8CC(CC(C8)C6)C7)cc5)CC4)ccc3C2=O)C(=O)N1 [GT-07721, 1-(5-((4-(4-((3r,5r,7r)-adamantan-1-yl)benzyl)piperazin-1-yl)methyl)-1-oxoisoindolin-2-yl)dihydropyrimidine-2,4(1H,3H)-dione]	A (0% ≤ substrate protein remaining % ≤ 80%)	A (0% ≤ substrate protein remaining % ≤ 80%)	A (0% ≤ substrate protein remaining % ≤ 80%)	A (0% ≤ substrate protein remaining % ≤ 80%)	A (0% ≤ substrate protein remaining % ≤ 80%)	A (0% ≤ substrate protein remaining % ≤ 80%)						
O=C1CCN(N2C(=O)c3ccc(CN4CCC(c5ccccc5F)CC4)cc3C2=O)C(=O)N1 [GT-06877, 2-(2,4-dioxotetrahydropyrimidin-1(2H)-yl)-5-((4-(2-fluorophenyl)piperidin-1-yl)methyl)isoindoline-1,3-dione]							B ("B" is defined as 80%< substrate protein remaining %≤ 100%)	B ("B" is defined as 80%< substrate protein remaining %≤ 100%)	B ("B" is defined as 80%< substrate protein remaining %≤ 100%)	B ("B" is defined as 80%< substrate protein remaining %≤ 100%)	A ("A" is defined as 0% ≤ substrate protein remaining % ≤ 80%)	B ("B" is defined as 80%< substrate protein remaining %≤ 100%)
O=C1CCN(N2C(=O)c3ccc(CN4CCN(c5ccc(Cl)cc5)CC4)cc3C2=O)C(=O)N1 [GT-06783, 5-((4-(4-chlorophenyl)piperazin-1-yl)methyl)-2-(2,4-dioxotetrahydropyrimidin-1(2H)-yl)isoindoline-1,3-dione]							B ("B" is defined as 80%< substrate protein remaining %≤ 100%)	B ("B" is defined as 80%< substrate protein remaining %≤ 100%)	B ("B" is defined as 80%< substrate protein remaining %≤ 100%)	A ("A" is defined as 0% ≤ substrate protein remaining % ≤ 80%)	B ("B" is defined as 80%< substrate protein remaining %≤ 100%)	B ("B" is defined as 80%< substrate protein remaining %≤ 100%)
O=C1CCN(N2Cc3cc(CN4C5CCC4CN(c4cccc(Cl)c4Cl)C5)ccc3C2=O)C(=O)N1 [GT-07430, 1-(5-((3-(2,3-dichlorophenyl)-3,8-diazabicyclo[3.2.1]octan-8-yl)methyl)-1-oxoisoindolin-2-yl)dihydropyrimidine-2,4(1H,3H)-dione]	B (80%< substrate protein remaining %≤ 100%)	A (0% ≤ substrate protein remaining % ≤ 80%)	B (80%< substrate protein remaining %≤ 100%)	B (80%< substrate protein remaining %≤ 100%)	A (0% ≤ substrate protein remaining % ≤ 80%)	A (0% ≤ substrate protein remaining % ≤ 80%)						
O=C1CCN(N2C(=O)c3ccc(CN4CCN(c5noc6ccncc56)CC4)cc3C2=O)C(=O)N1 [GT-07525, 2-(2,4-dioxotetrahydropyrimidin-1(2H)-yl)-5-((4-(isoxazolo[4,5-c]pyridin-3-yl)piperazin-1-yl)methyl)isoindoline-1,3-dione]	B (80%< substrate protein remaining %≤ 100%)	B (80%< substrate protein remaining %≤ 100%)	B (80%< substrate protein remaining %≤ 100%)	B (80%< substrate protein remaining %≤ 100%)	A (0% ≤ substrate protein remaining % ≤ 80%)	A (0% ≤ substrate protein remaining % ≤ 80%)						
O=C1CCN(N2Cc3cc(CN4CCCN(c5cccc(Cl)c5Cl)CC4)ccc3C2=O)C(=O)N1 [GT-07431, 1-(5-((4-(2,3-dichlorophenyl)-1,4-diazepan-1-yl)methyl)-1-oxoisoindolin-2-yl)dihydropyrimidine-2,4(1H,3H)-dione]	B (80%< substrate protein remaining %≤ 100%)	A (0% ≤ substrate protein remaining % ≤ 80%)	B (80%< substrate protein remaining %≤ 100%)	B (80%< substrate protein remaining %≤ 100%)	A (0% ≤ substrate protein remaining % ≤ 80%)	B (80%< substrate protein remaining %≤ 100%)						
